Values after ≈ are worked out from the molar mass of the structure shown. Values joined by “and” are separate entries in the source; they are usually repeats but may differ in a detail not shown here. Equal entries are not always repeated. Where two headings read alike, the source gives them in different places.
Columns and labels:
Fusobacterium necrogenes = assay: Agar dilution MIC, anaerobes; format: cell-based; details: single isolate, anaerobic agar dilution
Clostridium camis = assay: Agar dilution MIC, anaerobes; format: cell-based; details: single isolates, anaerobic agar dilution
Prevotella intermedia = assay: Agar dilution MIC, anaerobes; format: cell-based; details: single isolates, anaerobic agar dilution
Eubacterium leutum = assay: Agar dilution MIC, anaerobes; format: cell-based; details: single isolates, anaerobic agar dilution
Clostridium difficile = assay: Agar dilution MIC, anaerobes; format: cell-based; details: single isolates, anaerobic agar dilution
Prevotella bivia = assay: Agar dilution MIC, anaerobes; format: cell-based; details: single isolate, anaerobic agar dilution
Fusobacterium montiferum = assay: Agar dilution MIC, anaerobes; format: cell-based; details: single isolates, anaerobic agar dilution
[1] = test system: Peptostreptococcus prevotii; assay: Agar dilution MIC, anaerobes; format: cell-based; details: single isolates, anaerobic agar dilution
P. acnes = assay: Agar dilution MIC, anaerobes; format: cell-based; details: single isolates, anaerobic agar dilution
anaerobic bacteria = assay: Agar dilution method for anaerobic bacteria, summary; format: cell-based; details: anaerobes; for MIC50 / MIC90: Wilkins Chalgren agar, 48 hour
Clostridium perfringens = assay: microbe, parasite or virus in culture; format: cell-based
Porphyromonas gingivalis = assay: Agar dilution MIC, anaerobes; format: cell-based; details: single isolate, anaerobic agar dilution
Fusobacterium nucleatum = assay: Agar dilution MIC, anaerobes; format: cell-based; details: single isolates, anaerobic agar dilution
[2] = test system: Porphyromonas asaccharolytica; assay: Agar dilution MIC, anaerobes; format: cell-based; details: single isolate, anaerobic agar dilution
Bacteroides fragilis = assay: Agar dilution MIC, anaerobes; format: cell-based; details: single isolates, anaerobic agar dilution
[3] = test system: Peptostreptococcus tetradius; assay: Agar dilution MIC, anaerobes; format: cell-based; details: single isolates, anaerobic agar dilution
[4] = test system: Prevotella (Bacteroides) disiens; assay: Agar dilution MIC, anaerobes; format: cell-based; details: single isolates, anaerobic agar dilution
S. aureus ATCC 25923 = assay: MIC, agar incorporation method; details: agar incorporation
Strep. pne. ATCC 6303 = assay: MIC, agar incorporation method; details: agar incorporation
G +ve bacteria = assay: Summary of in vitro activity (MIC)
MRSA 562 [5] = assay: MIC, agar incorporation method
E. faecalis = assay: Summary of in vitro activity (MIC); details: E. faecalis
MRSA 562 [6] = assay: In vivo activity against MRSA 562 (ED50); design: species or system Methicillin Resistant Staphylococcus aureus; details: PO; MRSA 562 infection
S. pneumoniae = assay: Summary of in vitro activity (MIC); details: S. pneumoniae
MRSA 33 = assay: MIC, agar incorporation method; details: agar incorporation
S. aureus = assay: Summary of in vitro activity (MIC); details: S. aureus
Strep. pyog. ATCC 19615 = assay: MIC, agar incorporation method; details: agar incorporation
MRSA 15187 = assay: MIC, agar incorporation method; details: agar incorporation
Ent. faecalis ATCC 29212 = assay: MIC, agar incorporation method; details: agar incorporation
S. pneum AB 34 = assay: MIC, agar incorporation method; details: agar incorporation
VRE 6A (Ent. faecium 6A) = assay: MIC, agar incorporation method; details: agar incorporation
[7] = test system: Prevotella melaninogenica; assay: Agar dilution MIC, anaerobes; format: cell-based; details: single isolates, anaerobic agar dilution
[8] = test system: Peptostreptococcus asaccharolyticus; assay: Agar dilution MIC, anaerobes; format: cell-based; details: single isolates, anaerobic agar dilution
Fusobacterium varium = assay: Agar dilution MIC, anaerobes; format: cell-based; details: single isolates, anaerobic agar dilution

Q: Which MIC (Fusobacterium necrogenes; Fusobacterium necrogenes, read-out: MIC Fusobacterium necrogenes) does the source give for `COc1c(N2CCNC(C)C2)c(F)cc2c(=O)c(C(=O)O)cn(C3CC3)c12` (stereo not shown) [Gatifloxacin] here?
A: The MIC was 0.5 µg/mL (≈ 1.33 µM).

Q: What about the MIC (Clostridium camis; Clostridium, read-out: MIC Clostridium camis) of the same compound?
A: Its MIC is 0.25 µg/mL (≈ 0.666 µM).

Q: What about the MIC (Prevotella intermedia; Prevotella intermedia, read-out: MIC Prevotella intermedia) of the same compound?
A: Its MIC is 0.25 µg/mL (≈ 0.666 µM).

Q: And the MIC (Eubacterium leutum; Eubacterium, read-out: MIC Eubacterium leutum)?
A: Its MIC is 0.25 µg/mL (≈ 0.666 µM).

Q: And the “MIC Eubacterium leutum” value (Eubacterium leutum)?
A: Its value is 0.5 µg/mL (≈ 1.33 µM).

Q: What about the MIC (Clostridium difficile; Clostridioides difficile, read-out: MIC Clostridium difficile) of the same compound?
A: The MIC was 1 µg/mL (≈ 2.66 µM).

Q: And the “MIC Clostridium difficile” value (Clostridium difficile)?
A: Its value is 2 µg/mL (≈ 5.33 µM).

Q: What about the MIC (Prevotella bivia; Prevotella bivia, read-out: MIC Prevotella bivia) of the same compound?
A: Its MIC is 2 µg/mL (≈ 5.33 µM).

Q: And the MIC (Fusobacterium montiferum; Fusobacterium, read-out: MIC Fusobacterium montiferum)?
A: Its MIC is 0.25 µg/mL (≈ 0.666 µM).

Q: What about the “MIC Fusobacterium montiferum” value (Fusobacterium montiferum) of the same compound?
A: The value was 0.5 µg/mL (≈ 1.33 µM).

Q: And the MIC ([1]; Anaerococcus prevotii, read-out: MIC Peptostreptococcus prevotii)?
A: Its MIC is 0.5 µg/mL (≈ 1.33 µM).

Q: What about the “MIC Peptostreptococcus prevotii” value [1] of the same compound?
A: Its value is 1 µg/mL (≈ 2.66 µM).

Q: What about the MIC (P. acnes; Cutibacterium acnes, read-out: MIC P. acnes) of the same compound?
A: The MIC was 0.25 µg/mL (≈ 0.666 µM).

Q: What about the “MIC P. acnes” value (P. acnes) of the same compound?
A: Its value is 0.125 µg/mL (≈ 0.333 µM).

Q: And the “Geometric Mean” value (anaerobic bacteria)?
A: The value was 0.659 µg/mL.

Q: What about the “MIC Range” value (anaerobic bacteria) of the same compound?
A: Its value is 0.06 to 32 µg/mL.

Q: And the MIC50 (anaerobic bacteria; read-out: MIC50)?
A: Its MIC50 is 0.5 µg/mL (≈ 1.33 µM).

Q: And the MIC90 (anaerobic bacteria; read-out: MIC90)?
A: The MIC90 was 2 µg/mL (≈ 5.33 µM).

Q: And the MIC (Clostridium perfringens; Clostridium perfringens, read-out: MIC Clostridium perfringens, single isolates, anaerobic agar dilution)?
A: The MIC was 1 µg/mL (≈ 2.66 µM).

Q: And the MIC (Porphyromonas gingivalis; Porphyromonas gingivalis, read-out: MIC Porphyromonas gingivalis)?
A: Its MIC is 0.06 µg/mL (≈ 0.16 µM).

Q: And the MIC (Fusobacterium nucleatum; Fusobacterium nucleatum, read-out: MIC Fusobacterium nucleatum)?
A: The MIC was 0.25 µg/mL (≈ 0.666 µM).

Q: What about the “MIC Fusobacterium nucleatum” value (Fusobacterium nucleatum) of the same compound?
A: Its value is 0.5 µg/mL (≈ 1.33 µM).

Q: And the MIC ([2]; Porphyromonas asaccharolytica, read-out: MIC Porphyromonas asaccharolytica)?
A: Its MIC is 0.25 µg/mL (≈ 0.666 µM).

Q: What about the MIC (Bacteroides fragilis; Bacteroides fragilis, read-out: MIC Bacteroides fragilis) of the same compound?
A: The MIC was 1 µg/mL (≈ 2.66 µM).

Q: What about the MIC ([3]; Anaerococcus tetradius, read-out: MIC Peptostreptococcus tetradius) of the same compound?
A: The MIC was 1 µg/mL (≈ 2.66 µM).

Q: And the “MIC Peptostreptococcus tetradius” value [3]?
A: The value was 0.5 µg/mL (≈ 1.33 µM).

Q: What about the MIC ([4]; read-out: MIC Prevotella (Bacteroides) disiens) of the same compound?
A: Its MIC is 1 µg/mL (≈ 2.66 µM).

Q: How did the “MIC S. aureus 25923” value (S. aureus ATCC 25923) turn out when `CC(=O)NC[C@H]1CN(c2ccc(N3CCN(Cc4ccc([N+](=O)[O-])o4)CC3)c(F)c2)C(=O)O1` [Compound No. 15, (S)-N-[[3-[3-fluoro-4-[N-1-[4-{2-furyl-(5-nitro)methyl}]piperazinyl]phenyl]-2-oxo-5-oxazolidinyl]methyl]acetamide] was run?
A: Its value is 2 µg/mL (≈ 4.33 µM).

Q: What about the “MIC S. pneum 6303” value (Strep. pne. ATCC 6303) of the same compound?
A: The value was 1 µg/mL (≈ 2.17 µM).

Q: What about the MIC50 (G +ve bacteria; G +ve, Number 49) of the same compound?
A: The MIC50 was 1 µg/mL (≈ 2.17 µM).

Q: What about the MIC90 (G +ve bacteria; G +ve, Number 49) of the same compound?
A: Its MIC90 is 2 µg/mL (≈ 4.33 µM).

Q: What about the “Geometric Mean of in vitro activity (MIC)” value (“Geometric Mean … (MIC)” below) (G +ve bacteria; Gram + ve) of the same compound?
A: The value was 1.08 µg/mL.

Q: And the “MIC” value (MRSA 562 [5]; MRSA 562, Table 5)?
A: Its value is 2 µg/mL (≈ 4.33 µM).

Q: And the “MIC MRSA 562” value (MRSA 562 [5]; agar incorporation, Table 1)?
A: The value was 2 µg/mL (≈ 4.33 µM).

Q: And the “Geometric Mean … (MIC)” value (E. faecalis)?
A: Its value is 1.6 µg/mL.

Q: What about the MIC50 (E. faecalis; Number 7) of the same compound?
A: The MIC50 was 2 µg/mL (≈ 4.33 µM).

Q: And the MIC90 (E. faecalis; Number 7)?
A: Its MIC90 is 2 µg/mL (≈ 4.33 µM).

Q: What about the “ED50 (mg/kg body weight) PO” value (MRSA 562 [6]) of the same compound?
A: The value was 4.33 mg/kg body weight.

Q: What about the “Geometric Mean … (MIC)” value (S. pneumoniae) of the same compound?
A: The value was 1.04 µg/mL.

Q: And the MIC50 (S. pneumoniae; Number 19)?
A: The MIC50 was 2 µg/mL (≈ 4.33 µM).

Q: And the MIC90 (S. pneumoniae; Number 19)?
A: Its MIC90 is 4 µg/mL (≈ 8.67 µM).

Q: And the “MIC MRSA 33” value (MRSA 33)?
A: The value was 2 µg/mL (≈ 4.33 µM).

Q: And the “Geometric Mean … (MIC)” value (S. aureus)?
A: Its value is 1.63 µg/mL.

Q: What about the MIC50 (S. aureus; Number 8) of the same compound?
A: Its MIC50 is 2 µg/mL (≈ 4.33 µM).

Q: What about the MIC90 (S. aureus; Number 8) of the same compound?
A: Its MIC90 is 2 µg/mL (≈ 4.33 µM).

Q: And the “MIC S. pyogenes 19615” value (Strep. pyog. ATCC 19615)?
A: Its value is 1 µg/mL (≈ 2.17 µM).

Q: And the “MIC MRSA 15187” value (MRSA 15187)?
A: Its value is 2 µg/mL (≈ 4.33 µM).

Q: What about the “MIC E. faecalis 29212” value (Ent. faecalis ATCC 29212) of the same compound?
A: The value was 2 µg/mL (≈ 4.33 µM).

Q: What about the “MIC S. pneum AB 34” value (S. pneum AB 34) of the same compound?
A: The value was 2 µg/mL (≈ 4.33 µM).

Q: And the “MIC VRE 6A” value (VRE 6A (Ent. faecium 6A))?
A: The value was 1 µg/mL (≈ 2.17 µM).

Q: Teicoplanin was tested. Which “MIC Fusobacterium necrogenes” value (Fusobacterium necrogenes) did it give?
A: The value was over 16 µg/mL.

Q: And the “MIC Clostridium camis” value (Clostridium camis)?
A: The value was “<=.06 μg/ml”.

Q: And the “MIC Prevotella intermedia” value (Prevotella intermedia)?
A: Its value is 0.5 µg/mL.

Q: And the “MIC Prevotella melaninogenica” value [7]?
A: The value was 2 µg/mL and 4 µg/mL.

Q: And the “MIC Clostridium difficile” value (Clostridium difficile)?
A: Its value is 0.25 µg/mL.

Q: What about the “MIC Prevotella bivia” value (Prevotella bivia) of the same compound?
A: The value was 1 µg/mL.

Q: What about the “MIC Peptostreptococcus asaccharolyticus” value [8] of the same compound?
A: Its value is 0.125 µg/mL.

Q: What about the “MIC Fusobacterium montiferum” value (Fusobacterium montiferum) of the same compound?
A: The value was over 16 µg/mL.

Q: What about the “MIC P. acnes” value (P. acnes) of the same compound?
A: The value was 0.25 µg/mL.

Q: And the “Geometric Mean” value (anaerobic bacteria)?
A: Its value is 2.04 µg/mL.

Q: What about the “MIC Range” value (anaerobic bacteria) of the same compound?
A: The value was 0.03 to 32 µg/mL.

Q: What about the MIC50 (anaerobic bacteria) of the same compound?
A: Its MIC50 is 2 µg/mL.

Q: What about the MIC90 (anaerobic bacteria) of the same compound?
A: Its MIC90 is 32 µg/mL.

Q: And the “MIC Clostridium perfringens” value (Clostridium perfringens; single isolates, anaerobic agar dilution)?
A: Its value is “<=.06 μg/ml”.

Q: What about the “MIC Porphyromonas gingivalis” value (Porphyromonas gingivalis) of the same compound?
A: The value was “<=.06 μg/ml”.

Q: And the “MIC Fusobacterium nucleatum” value (Fusobacterium nucleatum)?
A: Its value is over 16 µg/mL.

Q: And the “MIC Porphyromonas asaccharolytica” value [2]?
A: The value was 0.125 µg/mL.

Q: And the “MIC Bacteroides fragilis” value (Bacteroides fragilis)?
A: The value was over 16 µg/mL.

Q: And the “MIC Fusobacterium varium” value (Fusobacterium varium)?
A: Its value is over 16 µg/mL.

Q: And the “MIC Prevotella (Bacteroides) disiens” value [4]?
A: The value was 16 µg/mL and >16 µg/mL.

Source: patent publication US20040254162A1, “Oxazolidinone derivatives as antimicrobials” (priority 2001, published 2004)
